In paper PMC8317135 (Journal of medicinal chemistry, 2021):
“Also recorded” adds a separate entry of the source. Where two headings read alike, the source gives them in different places.

How the values were obtained:
[1] = system: eosinophils in the bronchoalveolar lavage fluid (BALF); test: Ovalbumin/Aspergillus protease mouse model of allergic asthma, BALF leukocytes; format: in vivo; settings: 2 days post-challenge; for eosinophil counts in the BALF / efficacy in asthma model: 20 μmol kg^−1, i.p. prior to allergen challenge
[2] = system: CCI-induced mechano-allodynia; settings: mouse; cited from earlier work
hERG = hERG (Homo sapiens, UniProt Q12809); test: cell-based
hERG, sequence (Q12809 whole entry): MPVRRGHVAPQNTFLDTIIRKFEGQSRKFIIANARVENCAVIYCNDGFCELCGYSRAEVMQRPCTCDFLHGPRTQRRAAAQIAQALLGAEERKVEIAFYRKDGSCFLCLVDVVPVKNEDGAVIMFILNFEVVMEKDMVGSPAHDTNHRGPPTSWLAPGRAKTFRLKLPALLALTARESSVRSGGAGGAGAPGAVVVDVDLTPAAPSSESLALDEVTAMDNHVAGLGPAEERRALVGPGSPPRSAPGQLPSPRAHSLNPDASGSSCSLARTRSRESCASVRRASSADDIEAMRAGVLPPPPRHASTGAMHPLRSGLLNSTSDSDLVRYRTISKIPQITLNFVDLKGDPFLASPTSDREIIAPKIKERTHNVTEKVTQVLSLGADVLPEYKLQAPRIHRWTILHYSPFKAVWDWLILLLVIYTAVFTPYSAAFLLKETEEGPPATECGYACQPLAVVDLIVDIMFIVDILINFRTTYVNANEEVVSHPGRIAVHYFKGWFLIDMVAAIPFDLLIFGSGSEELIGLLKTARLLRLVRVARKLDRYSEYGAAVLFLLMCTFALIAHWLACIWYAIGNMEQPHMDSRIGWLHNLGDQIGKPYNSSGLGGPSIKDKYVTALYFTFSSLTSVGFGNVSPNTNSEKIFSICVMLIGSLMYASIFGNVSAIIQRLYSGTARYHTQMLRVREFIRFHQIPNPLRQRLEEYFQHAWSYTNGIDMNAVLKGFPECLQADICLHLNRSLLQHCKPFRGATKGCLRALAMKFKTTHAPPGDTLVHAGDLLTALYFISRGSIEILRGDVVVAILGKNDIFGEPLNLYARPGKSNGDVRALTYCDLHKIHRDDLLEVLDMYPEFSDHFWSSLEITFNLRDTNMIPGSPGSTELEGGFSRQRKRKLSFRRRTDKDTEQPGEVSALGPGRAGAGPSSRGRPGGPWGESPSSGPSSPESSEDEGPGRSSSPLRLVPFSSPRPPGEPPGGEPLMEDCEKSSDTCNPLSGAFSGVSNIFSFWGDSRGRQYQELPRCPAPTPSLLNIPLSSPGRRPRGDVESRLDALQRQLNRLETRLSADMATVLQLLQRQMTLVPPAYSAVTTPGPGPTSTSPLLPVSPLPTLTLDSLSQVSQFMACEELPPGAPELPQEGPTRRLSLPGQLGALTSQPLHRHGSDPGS

hP2Y14R [3] = target: T1, hP2Y14R (Homo sapiens, UniProt Q15391); settings: for hP2Y14R affinity in words: hP2Y14R-expressing CHO cells, tracer 2
T1 sequence (Q15391 1-338): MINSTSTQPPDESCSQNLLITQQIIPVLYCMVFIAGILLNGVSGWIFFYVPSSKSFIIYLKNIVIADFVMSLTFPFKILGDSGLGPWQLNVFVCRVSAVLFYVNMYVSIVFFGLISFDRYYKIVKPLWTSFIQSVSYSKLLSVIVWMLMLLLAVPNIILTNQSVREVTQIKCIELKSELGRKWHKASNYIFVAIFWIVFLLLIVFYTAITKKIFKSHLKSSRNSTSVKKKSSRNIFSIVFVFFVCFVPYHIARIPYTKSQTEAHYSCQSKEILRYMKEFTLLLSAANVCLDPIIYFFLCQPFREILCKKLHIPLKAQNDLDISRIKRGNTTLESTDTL

[4] = system: 46 receptors and channels; test: PDSP off-target radioligand binding screen; settings: radioligand binding at 46 receptors and channels
hP2Y14R [5] = target: T1, hP2Y14R; test: cell-based; settings: IC50 / affinity at hP2Y14R (μM), hP2Y14R-expressing CHO cells, tracer 2
[6] = Lipophilicity based on HPLC retention time; format: physicochemical; settings: relative to 1a
DOR (δ-opioid receptor) = DOR (δ-opioid receptor) (Homo sapiens, UniProt P41143); test: PDSP radioligand binding, DOR
DOR (δ-opioid receptor), sequence (P41143 whole entry): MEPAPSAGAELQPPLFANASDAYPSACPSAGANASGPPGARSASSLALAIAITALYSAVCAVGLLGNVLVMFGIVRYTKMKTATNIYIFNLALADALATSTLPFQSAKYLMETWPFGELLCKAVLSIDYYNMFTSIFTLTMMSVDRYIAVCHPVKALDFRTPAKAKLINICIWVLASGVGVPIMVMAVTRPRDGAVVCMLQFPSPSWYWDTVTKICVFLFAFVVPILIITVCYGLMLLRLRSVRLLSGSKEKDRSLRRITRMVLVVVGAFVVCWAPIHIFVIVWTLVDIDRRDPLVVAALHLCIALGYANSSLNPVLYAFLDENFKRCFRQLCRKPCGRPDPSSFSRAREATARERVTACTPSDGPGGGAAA

[7] = not given; remark: listed apart in the source
in vivo = settings: male, Wistar, rat
[8] = system: CCI-induced mechano-allodynia; test: Chronic constriction injury; settings: mouse
[9] = system: porcine liver esterase (PLE); test: Esterase cleavage of prodrugs by porcine liver esterase; settings: for percent cleavage at 72 h: pH 7.3 aqueous medium, PLE, 37 °C; for half-life at 1 mM: pig, pH 7.3
[10] = male Wistar rats, 1.0 mg kg^−1 i.p.
[11] = male Wistar rats, 3.0 mg kg^−1 i.p.
[12] = male Wistar rats, 10 mg kg^−1 i.p.

SMILES: O=C(O)c1cc(-c2ccc(C3CCNCC3)cc2)c2ccc(-c3ccc(C(F)(F)F)cc3)cc2c1 [Compound 1a, 4-[4-(4-piperidinyl)phenyl]-7-[4-(trifluoromethyl)phenyl]-2-naphthalene-carboxylic acid]
- eosinophil counts in the BALF / efficacy in asthma model [1]: reduced
- solubility in DMSO at 20 mg mL^−1: could not dissolve
- effect on chronic pain in the CCI model [2]: effective in reducing chronic pain
- IC50 (hERG): > 30 µM

SMILES: CC(=O)N1CCC(c2ccc(-c3cc(C(=O)O)cc4cc(-c5ccc(C(F)(F)F)cc5)ccc34)cc2)CC1 [Compound 1b, reference compound]
- eosinophil counts in the BALF / efficacy in asthma model [1]: no significant reduction
- effect on chronic pain in the CCI model [2]: effective in reducing chronic pain

SMILES: CC(=O)Nc1ccc(-c2cc(C(=O)O)cc(-n3cc(-c4ccc(C(F)(F)F)cc4)nn3)c2)cc1 [Compound 8, 4′-Acetamido-5-(4-(4-(trifluoromethyl)phenyl)-1H-1,2,3-triazol-1-yl)-[1,1′-biphenyl]-3-carboxylic Acid]
- hP2Y14R affinity in words (hP2Y14R [3]): submicromolar affinity

SMILES: O=C(O)c1cc(-c2ccc(NC(=O)C3CCNCC3)cc2)cc(-n2cc(-c3ccc(C(F)(F)F)cc3)nn2)c1 [Compound 11, 4′-(Piperidine-4-carboxamido)-5-(4-(4-(trifluoromethyl)phenyl)-1H-1,2,3-triazol-1-yl)-[1,1′-biphenyl]-3-carboxylic Acid]
- solubility in aqueous medium in words (Aqueous solubility): poorly soluble in aqueous medium

SMILES: CC(C)(C)OC(=O)N1CCC(C(=O)Nc2ccc(-c3cc(C(=O)O)cc(-n4cc(-c5ccc(C(F)(F)F)cc5)nn4)c3)cc2)CC1 [Compound 12, 4′-(1-(tert-Butoxycarbonyl)piperidine-4-carboxamido)-5-(4-(4-(trifluoromethyl)phenyl)-1H-1,2,3-triazol-1-yl)-[1,1′-biphenyl]-3-carboxylic Acid]
- fold weaker in binding than the parent amines (hP2Y14R [3]; N-Boc protected forms compared to 11 and 18): > 100 fold

SMILES: O=C(O)c1ccc(-c2cc(C(=O)O)cc(-n3cc(-c4ccc(C(F)(F)F)cc4)nn3)c2)cc1 [Compound 13, 5-(4-(4-(Trifluoromethyl)phenyl)-1H-1,2,3-triazol-1-yl)-[1,1′-bi-phenyl]-3,4′-dicarboxylic Acid]
- off-target interactions in the standard PDSP screen [4]: did not show any off-target interactions
- IC50 (hP2Y14R [5]): ~0.6 µM

SMILES: NCCCNC(=O)c1ccc(-c2cc(C(=O)O)cc(-n3cc(-c4ccc(C(F)(F)F)cc4)nn3)c2)cc1 [Compound 14, 4′-((3-Aminopropyl)carbamoyl)-5-(4-(4-(trifluoromethyl)-phenyl)-1H-1,2,3-triazol-1-yl)-[1,1′-biphenyl]-3-carboxylic Acid]
- fold lower affinity than thienyl derivative 4 (hP2Y14R [3]; compared to 4): 3.5 fold
- hP2Y14R affinity in words (hP2Y14R [3]): submicromolar affinity

SMILES: NCCCc1ccc(-c2cc(C(=O)O)cc(-n3cc(-c4ccc(C(F)(F)F)cc4)nn3)c2)cc1 [Compound 18, 4′-(3-Aminopropyl)-5-(4-(4-(trifluoromethyl)phenyl)-1H-1,2,3-triazol-1-yl)-[1,1′-biphenyl]-3-carboxylic Acid]
- off-target interactions in the standard PDSP screen [4]: did not show any off-target interactions
- hP2Y14R affinity in words (hP2Y14R [3]): submicromolar affinity

SMILES: NCC#Cc1ccc(-c2cc(C(=O)O)cc(-n3cc(-c4ccc(C(F)(F)F)cc4)nn3)c2)cc1 [Compound 19, 4′-(3-Aminoprop-1-yn-1-yl)-5-(4-(4-(trifluoromethyl)phenyl)-1H-1,2,3-triazol-1-yl)-[1,1′-biphenyl]-3-carboxylic Acid]
- off-target interactions in the standard PDSP screen [4]: did not show any off-target interactions
- hP2Y14R affinity in words (hP2Y14R [3]): submicromolar affinity

SMILES: O=C(O)c1cc(-c2ccc(CCCCO)cc2)cc(-n2cc(-c3ccc(C(F)(F)F)cc3)nn2)c1 [Compound 21, 4′-(4-Hydroxybutyl)-5-(4-(4-(trifluoromethyl)phenyl)-1H-1,2,3-triazol-1-yl)-[1,1′-biphenyl]-3-carboxylic Acid]
- hP2Y14R affinity in words (hP2Y14R [3]): bound weakly

SMILES: O=C(O)c1cc(-c2ccc(-c3cc(CO)on3)cc2)cc(-n2cc(-c3ccc(C(F)(F)F)cc3)nn2)c1 [Compound 29, 4′-(5-(Hydroxymethyl)isoxazol-3-yl)-5-(4-(4-(trifluoromethyl)-phenyl)-1H-1,2,3-triazol-1-yl)-[1,1′-biphenyl]-3-carboxylic Acid]
- hydrophilicity gain compared to 1a [6]: −1.06 cLogP units
- Ki (DOR (δ-opioid receptor)): 6.9 ± 1.9 µM
- hP2Y14R affinity in words (hP2Y14R [3]): submicromolar affinity

SMILES: O=C(O)c1cc(-c2ccc(-c3nnn[nH]3)cc2)cc(-n2cc(-c3ccc(C(F)(F)F)cc3)nn2)c1 [Compound 31, 4′-(1H-Tetrazol-5-yl)-5-(4-(4-(trifluoromethyl)phenyl)-1H-1,2,3-triazol-1-yl)-[1,1′-biphenyl]-3-carboxylic Acid]
- hP2Y14R affinity in words (hP2Y14R [3]): submicromolar affinity

SMILES: O=C(O)c1cc(-c2ccc(-c3cc(CO)on3)cc2)c2ccc(-c3ccc(C(F)(F)F)cc3)cc2c1 [Compound 32, 4-(4-(5-(Hydroxymethyl)isoxazol-3-yl)phenyl)-7-(4-(trifluoromethyl)phenyl)-2-naphthoic Acid]
- hydrophilicity gain compared to 1a [6]: −0.80 cLogP units
- eosinophil counts in the BALF / efficacy in asthma model [1]: no significant reduction
- clinical signs ([7]; all rat groups at all time points (up to 24 h)): normal
- Kel (1 h^−1) ([7]; male Wistar rats, 0.5 mg kg^−1 i.v.): 1.01 1 h^−1
- Cl [7, 10]: 23.83 mL/min/kg
- Kel (1 h^−1) [7, 10]: 0.096 1 h^−1
- Vd (mL kg^−1) [7, 10]: 14,900 mL kg^−1
- Cl [7, 11]: 23.67 mL/min/kg
- Kel (1 h^−1) [7, 11]: 0.148 1 h^−1
- Vd [7, 11]: 9.57 L/kg
- Cl [7, 12]: 33.83 mL/min/kg
- Kel (1 h^−1) [7, 12]: 0.233 1 h^−1
- Vd [7, 12]: 8.73 L/kg
- peak concentration ([7]; rat, 10 mg kg^−1, i.p., 4 h post-injection): 1.61 µM
- AUC(0-t) at 24 h (in vivo; ip, 1 mg/kg): 650 ng·h/mL
- Cmax at 24 h (in vivo; ip, 1 mg/kg): 88.4 ng/mL
- half-life (in vivo; ip, 1 mg/kg): 7.23 h
- AUC(0-inf) at 24 h (in vivo; ip, 3 mg/kg): 2120 ng·h/mL
- AUC(0-t) at 24 h (in vivo; ip, 3 mg/kg): 2060 ng·h/mL
- Cmax at 24 h (in vivo; ip, 3 mg/kg): 315 ng/mL
- half-life at 24 h (in vivo; ip, 3 mg/kg): 4.68 h
- AUC(0-inf) at 24 h (in vivo; ip, 10 mg/kg): 4920 ng·h/mL
- AUC(0-t) at 24 h (in vivo; ip, 10 mg/kg): 4900 ng·h/mL
- Cmax at 24 h (in vivo; ip, 10 mg/kg): 786 ng/mL
- half-life at 24 h (in vivo; ip, 10 mg/kg): 2.98 h
- AUC(0-inf) at 24 h (in vivo; iv, 0.5 mg/kg): 238 ng·h/mL
- AUC(0-t) at 24 h (in vivo; iv, 0.5 mg/kg): 234 ng·h/mL
- Cmax at 24 h (in vivo; iv, 0.5 mg/kg): 359 ng/mL
- Vd at 24 h (in vivo; iv, 0.5 mg/kg): 2.09 L/kg
- clearance at 24 h (in vivo; iv, 0.5 mg/kg): 35.2 mL/min/kg
- half-life at 24 h (in vivo; iv, 0.5 mg/kg): 0.689 h
- maximal reversal of CCI-induced mechano-allodynia ([8]; 10 μmol kg^−1 (4.9 mg kg^−1), i.p., 1 h post-injection): 71.0 ± 17.4%
- side effects ([8]; 10 μmol kg^−1, i.p.): No side effects were evident
- protection against CCI-induced mechano-allodynia at 3 or 5 h ([8]; 10 μmol kg^−1, i.p., 3 or 5 h post-injection): not statistically significant

SMILES: CN(C)C(=O)COC(=O)c1cc(-c2ccc(C3CCNCC3)cc2)cc(-n2cc(-c3ccc(C(F)(F)F)cc3)nn2)c1 [Compound 37a, 2-(Dimethylamino)-2-oxoethyl 4′-(Piperidin-4-yl)-5-(4-(4-(trifluoromethyl)phenyl)-1H-1,2,3-triazol-1-yl)-[1,1′-biphenyl]-3-carboxylate]
- number of off-target interactions in the μM range [4]: 18
- off-target interactions in the standard PDSP screen [4]: promiscuous in off-target binding
- eosinophil counts in the BALF / efficacy in asthma model [1]: lack of in vivo activity
- lymphocyte count in the BALF ([1]; 20 μmol kg^−1, i.p.): trended higher than in a vehicle control

SMILES: CN(C)C(=O)COC(=O)c1cc(-c2ccc(-c3cc(CO)on3)cc2)c2ccc(-c3ccc(C(F)(F)F)cc3)cc2c1 [Compound 37b, 2-(Dimethylamino)-2-oxoethyl 4-(4-(5-(Hydroxymethyl)isoxazol-3-yl)phenyl)-7-(4-(trifluoromethyl)phenyl)-2-naphthoate]
- eosinophil counts in the BALF / efficacy in asthma model [1]: significantly reduced eosinophils; also recorded: highly efficacious
- percent cleavage at 72 h [9]: < 50%
- half-life at 1 mM [9]: > 1.2 h

SMILES: CC(=O)N1CCC(c2ccc(-c3cc(C(=O)OCC(=O)N(C)C)cc4cc(-c5ccc(C(F)(F)F)cc5)ccc34)cc2)CC1 [Compound 37c, 2-(Dimethylamino)-2-oxoethyl 4-(4-(1-Acetylpiperidin-4-yl)-phenyl)-7-(4-(trifluoromethyl)phenyl)-2-naphthoate]
- eosinophil counts in the BALF / efficacy in asthma model [1]: significantly reduced eosinophils; also recorded: highly efficacious
- percent cleavage at 72 h [9]: < 50%
- half-life at 1 mM [9]: > 1.2 h
